Data on eleven molecules can be found in ChEMBL document CHEMBL1201862, “PubChem BioAssay data set” (2004).

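48-hour exposure; five concentrations; linearly interpolated endpoints. GI50 is the concentration that inhibits growth by half.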 Activity calls are given as the source filed them. No stated cut-off is given here; in the data, active = GI50 up to about 1.1 µM and inactive = higher. A value given as a limit tells only on which side of the number the result lay.

Some test systems named below: SK-MEL-2; MDA-MB-435; CAKI-1; RXF 393; SF-268; NCI-H23; OVCAR-5; TK-10; T47D; LOX IMVI; HOP-92; NCI/ADR-RES; HOP-62; OVCAR-4; UO-31; 786-0; CCRF-CEM; HL-60; MOLT-4; SK-OV-3.
Assay in all cases: NCI anticancer screen, dose series, 48 h

In the case of `NC(=O)Nc1ccc(S(=O)(=O)Nc2ccc(S(N)(=O)=O)cc2)cc1`, the GI50 in the assay with SK-MEL-2 was > 100 µM (inactive); with MDA-MB-435 it was > 100 µM (inactive); in the assay with CAKI-1 it was > 100 µM (inactive); with RXF 393, > 100 µM (inactive); in the assay on SF-268, 0.649 µM (active); in the assay with NCI-H23, > 100 µM (inactive). The GI50 is > 100 µM (inactive) with OVCAR-5; > 100 µM (inactive) in the assay on TK-10; > 100 µM (inactive) with T47D; > 100 µM (inactive) in the assay on LOX IMVI; 37.2 µM (inactive) in the assay on HOP-92; > 100 µM (inactive) in the assay with NCI/ADR-RES. In addition, the GI50 in the assay on HOP-62, in the assay on OVCAR-4, with UO-31, in the assay on 786-0 and in the assay with CCRF-CEM was > 100 µM (inactive) each time.
In the case of `CN1CCN(c2ccc3[nH]c(-c4ccc5[nH]c(-c6ccc(O)cc6)nc5c4)nc3c2)CC1`, the GI50 with SK-MEL-2 is > 100 µM (inactive); with MDA-MB-435, 8.28 µM (inactive); in the assay with CAKI-1, 105 µM (inactive); in the assay with RXF 393, 130 µM (inactive); with HL-60, 11.9 µM (inactive); with SF-268, 70.8 µM (inactive). For the same molecule, the GI50 with NCI-H23 was 240 µM (inactive); with OVCAR-5, 473 µM (inactive); with TK-10, 705 µM (inactive); with T47D it was 9.4 µM (inactive); in the assay with LOX IMVI, 85.5 µM (inactive); in the assay on HOP-92, 33.7 µM (inactive). The GI50 in the assay with NCI/ADR-RES was 482 µM (inactive); with HOP-62 it was 250 µM (inactive); in the assay with MOLT-4 it was 29.1 µM (inactive); with OVCAR-4 it was 274 µM (inactive); in the assay with SK-OV-3, 664 µM (inactive); with UO-31 it was 564 µM (inactive). Moreover, the GI50 in the assay with 786-0 is 228 µM (inactive).
As for `C=CCCC(=O)CC(O)(C(F)(F)F)C(F)(F)F`, the GI50 in the assay on SK-MEL-2, in the assay on MDA-MB-435, with CAKI-1, in the assay with RXF 393, in the assay with HL-60 and with NCI-H23 was > 100 µM (inactive) each time. Further, the GI50 in the assay with OVCAR-5, in the assay on TK-10, with T47D, in the assay with LOX IMVI, in the assay on HOP-92 and in the assay on NCI/ADR-RES was > 100 µM (inactive) each time. Besides, the GI50 with MOLT-4, with OVCAR-4, in the assay on SK-OV-3, in the assay on UO-31, with 786-0 and with CCRF-CEM was > 100 µM (inactive) in each case.
For the molecule `c1ccc(C2=Nn3c(CCCCCCCCc4nnc5n4N=C(c4ccccc4)CS5)nnc3SC2)cc1`, the GI50 in the assay on SK-MEL-2 is 32.1 µM (inactive); with MDA-MB-435 it was > 100 µM (inactive); in the assay on CAKI-1, 41.2 µM (inactive); in the assay with RXF 393, 20.5 µM (inactive); with SF-268, 23.1 µM (inactive); in the assay with NCI-H23 it was > 74.6 µM (inactive). Moreover, the GI50 in the assay on OVCAR-5 was > 75.9 µM (inactive); in the assay on TK-10, 29.2 µM (inactive); with T47D it was > 92.9 µM (inactive); in the assay on LOX IMVI it was 45.4 µM (inactive); in the assay on HOP-92, 34.2 µM (inactive); in the assay with NCI/ADR-RES it was > 79.8 µM (inactive). The GI50 with HOP-62 was 17.4 µM (inactive); in the assay on MOLT-4, 32.4 µM (inactive); in the assay on OVCAR-4 it was > 100 µM (inactive); in the assay on SK-OV-3, 25.9 µM (inactive); in the assay with UO-31, > 67.3 µM (inactive); in the assay on 786-0 it was 14.8 µM (inactive). Moreover, the GI50 in the assay on CCRF-CEM is 22.6 µM (inactive).
With `COc1cccc(CCn2c(N)c(-c3ccccc3)c3ccc([N+](=O)[O-])cc3c2=O)c1`, the GI50 with SK-MEL-2 was 16.7 µM (inactive); in the assay on MDA-MB-435 it was 21.9 µM (inactive); in the assay with CAKI-1 it was 6.3 µM (inactive); in the assay on HL-60 it was 5.47 µM (inactive); in the assay on SF-268, 16.2 µM (inactive); in the assay on NCI-H23 it was 3.16 µM (inactive). For the same molecule, the GI50 is 14.3 µM (inactive) in the assay with OVCAR-5; 2.07 µM (inactive) with TK-10; 2.05 µM (inactive) in the assay on T47D; 2.43 µM (inactive) in the assay on LOX IMVI; 10.3 µM (inactive) with HOP-92; 1.9 µM (inactive) in the assay on NCI/ADR-RES. Further, the GI50 in the assay on HOP-62 is 6.56 µM (inactive); in the assay on MOLT-4, 6.7 µM (inactive); with OVCAR-4, 1.79 µM (inactive); in the assay with SK-OV-3 it was 5.07 µM (inactive); in the assay on UO-31 it was 9.02 µM (inactive); in the assay with 786-0 it was 6.25 µM (inactive). The GI50 in the assay with CCRF-CEM was 11.4 µM (inactive).
For the molecule `O=C(/C=C\c1ccc([N+](=O)[O-])cc1)c1ccccc(=O)c1O`, the GI50 with SK-MEL-2 was 1.89 µM (inactive); in the assay on MDA-MB-435, 0.989 µM (active); in the assay with CAKI-1 it was 1.32 µM (inactive); with HL-60, 0.538 µM (active); in the assay with SF-268, 0.977 µM (active); in the assay with NCI-H23, 2.33 µM (inactive). Moreover, the GI50 with OVCAR-5 is 2.55 µM (inactive); in the assay on TK-10 it was 2.49 µM (inactive); in the assay on T47D, 2.67 µM (inactive); in the assay with LOX IMVI, 0.449 µM (active); in the assay with HOP-92, 0.256 µM (active); in the assay on NCI/ADR-RES, 0.429 µM (active). Also, the GI50 was 1.88 µM (inactive) with HOP-62; 0.721 µM (active) in the assay with MOLT-4; 2.47 µM (inactive) in the assay with OVCAR-4; 4.3 µM (inactive) in the assay with SK-OV-3; 1.02 µM (active) in the assay with UO-31; 0.769 µM (active) in the assay on 786-0. The GI50 in the assay on CCRF-CEM is < 0.0319 µM (active).
Turning to `CC(=O)N(O)[C@@H]1CC[C@H](n2cnc3c(N)ncnc32)C1`, the GI50 with SK-MEL-2, with MDA-MB-435, in the assay on CAKI-1, in the assay with RXF 393, in the assay on SF-268 and in the assay on NCI-H23 was > 100 µM (inactive) throughout. The GI50 with OVCAR-5, with TK-10, in the assay with T47D, with LOX IMVI, with HOP-92 and in the assay with NCI/ADR-RES was > 100 µM (inactive) each time. For the same molecule, the GI50 in the assay on HOP-62, in the assay with MOLT-4, with OVCAR-4, in the assay on SK-OV-3, in the assay with UO-31 and with 786-0 was > 100 µM (inactive) each time. In addition, the GI50 in the assay on CCRF-CEM is > 100 µM (inactive).
Regarding `C[C@@H]1OC(=O)C[C@H]2CC(=O)N(CCC3CN(C(=O)c4ccccc4)c4ccccc43)C[C@@H]21` (some centres not stated), the GI50 with SK-MEL-2, in the assay on MDA-MB-435, with CAKI-1, in the assay on RXF 393, in the assay with SF-268 and in the assay with NCI-H23 was > 100 µM (inactive) throughout. The GI50 in the assay with OVCAR-5, in the assay on TK-10, in the assay on T47D, with HOP-92, in the assay with NCI/ADR-RES and with HOP-62 was > 100 µM (inactive) throughout. The GI50 with MOLT-4, in the assay with OVCAR-4, with SK-OV-3, in the assay on UO-31 and in the assay on 786-0 was > 100 µM (inactive) throughout.
For the molecule `COc1cc2nc(Nc3cccc(Br)c3)nc(Nc3cccc(Br)c3)c2cc1OC`, the GI50 in the assay with SK-MEL-2 is 18.4 µM (inactive); with MDA-MB-435, 19.7 µM (inactive); in the assay on CAKI-1, 15.7 µM (inactive); with RXF 393, 18.4 µM (inactive); in the assay on SF-268, 16.2 µM (inactive); in the assay on NCI-H23 it was 17.7 µM (inactive). Further, the GI50 in the assay with OVCAR-5 was 23.1 µM (inactive); in the assay on TK-10 it was 21.5 µM (inactive); in the assay with T47D, 17.1 µM (inactive); in the assay on LOX IMVI it was 16.7 µM (inactive); in the assay on HOP-92, 15.3 µM (inactive); with NCI/ADR-RES, 19.6 µM (inactive). Also, the GI50 in the assay with HOP-62 was 18 µM (inactive); in the assay on MOLT-4, 20.4 µM (inactive); in the assay on OVCAR-4 it was 15.7 µM (inactive); in the assay on SK-OV-3, 19.2 µM (inactive); with UO-31, 16 µM (inactive); in the assay on 786-0, 17.3 µM (inactive). In addition, in the assay on CCRF-CEM, the GI50 is 22.2 µM (inactive).
For the molecule `Cc1ccc(S(=O)(=O)N(CC(O)COc2ccccc2)c2ccccc2Cl)cc1` (configuration not stated), the GI50 in the assay with SK-MEL-2 is 13.7 µM (inactive); in the assay on MDA-MB-435, 15.6 µM (inactive); in the assay on CAKI-1 it was 15.5 µM (inactive); in the assay on RXF 393, 16 µM (inactive); with HL-60 it was 24.6 µM (inactive); in the assay with SF-268, 17.1 µM (inactive). The GI50 was 14.7 µM (inactive) in the assay on NCI-H23; 23.3 µM (inactive) with OVCAR-5; 14.2 µM (inactive) in the assay with TK-10; 24.9 µM (inactive) in the assay with T47D; 17.3 µM (inactive) in the assay on LOX IMVI; 16.8 µM (inactive) in the assay on NCI/ADR-RES. The GI50 was 20 µM (inactive) in the assay on HOP-62; 19.8 µM (inactive) in the assay on MOLT-4; 12.4 µM (inactive) with OVCAR-4; 23.8 µM (inactive) with SK-OV-3; 12.2 µM (inactive) in the assay on UO-31; 18.4 µM (inactive) in the assay with 786-0. Also, the GI50 with CCRF-CEM was 13.9 µM (inactive).
`CC(C)(C)OC(=O)NC1CCCC1C(O)(C1=CCCC1)C1=CCCC1` (configuration not stated): the GI50 with SK-MEL-2, with MDA-MB-435, in the assay with RXF 393, with HL-60, with SF-268 and with NCI-H23 was > 100 µM (inactive) each time. For the same molecule, the GI50 was > 100 µM (inactive) in the assay on OVCAR-5; 25.6 µM (inactive) in the assay with T47D; > 100 µM (inactive) in the assay with LOX IMVI; > 100 µM (inactive) in the assay with HOP-92; > 100 µM (inactive) in the assay on NCI/ADR-RES; > 100 µM (inactive) in the assay with HOP-62. For the same molecule, the GI50 in the assay on MOLT-4 was > 100 µM (inactive); in the assay on OVCAR-4, 67.6 µM (inactive); in the assay on SK-OV-3, > 100 µM (inactive); with 786-0 it was > 100 µM (inactive); with CCRF-CEM, > 100 µM (inactive).
